Source: ChEMBL document CHEMBL1151757, “Synthesis, radiosynthesis, and biological evaluation of fluorine-18-labeled 2beta-carbo(fluoroalkoxy)-3beta-(3'-((Z)-2-haloethenyl)phenyl)nortropanes: candidate radioligands for in vivo imaging of the serotonin transporter with positron emission tomography” (J Med Chem, 2008)

Columns and labels:
Caudate [1] = assay: Drug uptake in anesthetized cynomolgus monkey brain caudate after 115 mins postinjection; format: ADME, organism-based, Macaca fascicularis, Caudate nucleus; settings: in vivo
Caudate [2] = assay: Drug uptake in anesthetized cynomolgus monkey brain caudate after 145 mins postinjection; format: ADME, organism-based, Macaca fascicularis, Caudate nucleus; settings: in vivo
Medulla [3] = assay: Drug uptake in anesthetized cynomolgus monkey brain medulla after 27.5 mins postinjection; format: ADME, organism-based, Macaca fascicularis; settings: in vivo
Pons [4] = assay: Drug uptake in anesthetized cynomolgus monkey brain pons after 197.5 mins postinjection; format: ADME, organism-based, Macaca fascicularis; settings: in vivo
Medulla [5] = assay: Drug uptake in anesthetized cynomolgus monkey brain medulla after 125 mins postinjection; format: ADME, organism-based, Macaca fascicularis; settings: in vivo
Caudate [6] = assay: Drug uptake in anesthetized cynomolgus monkey brain caudate after 187.5 mins postinjection; format: ADME, organism-based, Macaca fascicularis, Caudate nucleus; settings: in vivo, 3.125 h
Medulla [7] = assay: Drug uptake in anesthetized cynomolgus monkey brain medulla after 75 mins postinjection; format: ADME, organism-based, Macaca fascicularis; settings: in vivo, 1.25 h
Caudate [8] = assay: Drug uptake in anesthetized cynomolgus monkey brain caudate after 85 mins postinjection; format: ADME, organism-based, Macaca fascicularis, Caudate nucleus; settings: in vivo
[9] = Drug uptake in awake rhesus monkey brain medulla after 115 mins postinjection; format: ADME, organism-based, Macaca mulatta; settings: in vivo
[10] = Drug uptake in anesthetized cynomolgus monkey brain cerebellum after 0.5 mins postinjection; format: ADME, organism-based, Macaca fascicularis; settings: in vivo
[11] = Ratio of drug uptake in putamen to cerebellum in anesthetized cynomolgus monkey after 215 mins postinjection; format: ADME, organism-based, Macaca fascicularis; settings: in vivo
Thalamus [12] = assay: Drug uptake in anesthetized cynomolgus monkey brain thalamus after 207.5 mins postinjection; format: ADME, organism-based, Macaca fascicularis; settings: in vivo
Midbrain [13] = assay: Drug uptake in anesthetized cynomolgus monkey brain midbrain after 3.5 mins postinjection; format: ADME, organism-based, Macaca fascicularis; parameters: unit not given here; settings: in vivo
Putamen [14] = assay: Drug uptake in anesthetized cynomolgus monkey brain putamen after 135 mins postinjection; format: ADME, organism-based, Macaca fascicularis; settings: in vivo, 2.25 h
Thalamus [15] = assay: Drug uptake in anesthetized cynomolgus monkey brain thalamus after 1.5 mins postinjection; format: ADME, organism-based, Macaca fascicularis; settings: in vivo, 0.025 h
[16] = Drug uptake in anesthetized cynomolgus monkey brain cerebellum after 192.5 mins postinjection; format: ADME, organism-based, Macaca fascicularis; settings: in vivo
Putamen [17] = assay: Drug uptake in anesthetized cynomolgus monkey brain putamen after 12.5 mins postinjection; format: ADME, organism-based, Macaca fascicularis; parameters: unit not given here; settings: in vivo
Thalamus [18] = assay: Drug uptake in anesthetized cynomolgus monkey brain thalamus after 125 mins postinjection; format: ADME, organism-based, Macaca fascicularis; parameters: unit not given here; settings: in vivo
Caudate [19] = assay: Drug uptake in anesthetized cynomolgus monkey brain caudate after 197.5 mins postinjection; format: ADME, organism-based, Macaca fascicularis, Caudate nucleus; settings: in vivo
Caudate [20] = assay: Drug uptake in anesthetized cynomolgus monkey brain caudate after 35 mins postinjection; format: ADME, organism-based, Macaca fascicularis, Caudate nucleus; settings: in vivo
[21] = Ratio of drug uptake in putamen to cerebellum in awake rhesus monkey after 45 mins postinjection; format: ADME, organism-based, Macaca mulatta; settings: in vivo, 0.75 h
[22] = Drug uptake in awake rhesus monkey brain thalamus after 65 mins postinjection; format: ADME, organism-based, Macaca mulatta; settings: in vivo
Pons [23] = assay: Drug uptake in anesthetized cynomolgus monkey brain pons after 155 mins postinjection; format: ADME, organism-based, Macaca fascicularis; settings: in vivo
Caudate [24] = assay: Drug uptake in anesthetized cynomolgus monkey brain caudate after 192.5 mins postinjection; format: ADME, organism-based, Macaca fascicularis, Caudate nucleus; settings: in vivo
[25] = Drug uptake in awake rhesus monkey brain frontal lobe after 65 mins postinjection; format: ADME, organism-based, Macaca mulatta; settings: in vivo
[26] = Drug uptake in awake rhesus monkey brain caudate after 55 mins postinjection; format: ADME, organism-based, Macaca mulatta, Caudate nucleus; settings: in vivo
Putamen [27] = assay: Drug uptake in anesthetized cynomolgus monkey brain putamen after 55 mins postinjection; format: ADME, organism-based, Macaca fascicularis; parameters: unit not given here; settings: in vivo
[28] = Drug uptake in awake rhesus monkey brain frontal lobe after 13.5 mins postinjection; format: ADME, organism-based, Macaca mulatta; settings: in vivo, 0.225 h
[29] = Ratio of drug uptake in caudate to cerebellum in awake rhesus monkey after 25 mins postinjection; format: ADME, organism-based, Macaca mulatta; settings: in vivo
Thalamus [30] = assay: Drug uptake in anesthetized cynomolgus monkey brain thalamus after 215 mins postinjection; format: ADME, organism-based, Macaca fascicularis; parameters: unit not given here; settings: in vivo
[31] = Ratio of drug uptake in pons to cerebellum in awake rhesus monkey after 10.5 mins postinjection; format: ADME, organism-based, Macaca mulatta; settings: in vivo, 0.175 h
Putamen [32] = assay: Drug uptake in anesthetized cynomolgus monkey brain putamen after 0.5 mins postinjection; format: ADME, organism-based, Macaca fascicularis; settings: in vivo
Pons [33] = assay: Drug uptake in anesthetized cynomolgus monkey brain pons after 202.5 mins postinjection; format: ADME, organism-based, Macaca fascicularis; settings: in vivo, 3.375 h
Thalamus [34] = assay: Drug uptake in anesthetized cynomolgus monkey brain thalamus after 182.5 mins postinjection; format: ADME, organism-based, Macaca fascicularis; settings: in vivo
Putamen [35] = assay: Drug uptake in anesthetized cynomolgus monkey brain putamen after 235 mins postinjection; format: ADME, organism-based, Macaca fascicularis; settings: in vivo
Midbrain [36] = assay: Drug uptake in anesthetized cynomolgus monkey brain midbrain after 165 mins postinjection; format: ADME, organism-based, Macaca fascicularis; settings: in vivo, 2.75 h
Thalamus [37] = assay: Drug uptake in anesthetized cynomolgus monkey brain thalamus after 235 mins postinjection; format: ADME, organism-based, Macaca fascicularis; parameters: unit not given here; settings: in vivo
[38] = Ratio of drug uptake in midbrain to cerebellum in anesthetized cynomolgus monkey after 145 mins postinjection; format: ADME, organism-based, Macaca fascicularis; settings: in vivo
[39] = Drug uptake in awake rhesus monkey brain medulla after 65 mins postinjection; format: ADME, organism-based, Macaca mulatta; settings: in vivo
[40] = Drug uptake in anesthetized cynomolgus monkey brain occipital lobe after 197.5 mins postinjection; format: ADME, organism-based, Macaca fascicularis; settings: in vivo
[41] = Drug uptake in anesthetized cynomolgus monkey brain cerebellum after 197.5 mins postinjection; format: ADME, organism-based, Macaca fascicularis; settings: in vivo
Pons [42] = assay: Drug uptake in anesthetized cynomolgus monkey brain pons after 3.5 mins postinjection; format: ADME, organism-based, Macaca fascicularis; settings: in vivo
Pons [43] = assay: Drug uptake in anesthetized cynomolgus monkey brain pons after 182.5 mins postinjection; format: ADME, organism-based, Macaca fascicularis; settings: in vivo
Thalamus [44] = assay: Drug uptake in anesthetized cynomolgus monkey brain thalamus after 95 mins postinjection; format: ADME, organism-based, Macaca fascicularis; parameters: unit not given here; settings: in vivo
Thalamus [45] = assay: Drug uptake in anesthetized cynomolgus monkey brain thalamus after 175 mins postinjection; format: ADME, organism-based, Macaca fascicularis; parameters: unit not given here; settings: in vivo
[46] = Ratio of drug uptake in occipital lobe to cerebellum in anesthetized cynomolgus monkey after 115 mins postinjection; format: ADME, organism-based, Macaca fascicularis; settings: in vivo
Medulla [47] = assay: Drug uptake in anesthetized cynomolgus monkey brain medulla after 9.5 mins postinjection; format: ADME, organism-based, Macaca fascicularis; settings: in vivo
[48] = Drug uptake in anesthetized cynomolgus monkey brain cerebellum after 1.5 mins postinjection; format: ADME, organism-based, Macaca fascicularis; settings: in vivo, 0.025 h
[49] = Drug uptake in anesthetized cynomolgus monkey brain occipital lobe after 35 mins postinjection; format: ADME, organism-based, Macaca fascicularis; settings: in vivo
Caudate [50] = assay: Drug uptake in anesthetized cynomolgus monkey brain caudate after 215 mins postinjection; format: ADME, organism-based, Macaca fascicularis, Caudate nucleus; settings: in vivo
Midbrain [51] = assay: Drug uptake in anesthetized cynomolgus monkey brain midbrain after 155 mins postinjection; format: ADME, organism-based, Macaca fascicularis; settings: in vivo
Medulla [52] = assay: Drug uptake in anesthetized cynomolgus monkey brain medulla after 182.5 mins postinjection; format: ADME, organism-based, Macaca fascicularis; settings: in vivo
Medulla [53] = assay: Drug uptake in anesthetized cynomolgus monkey brain medulla after 1.5 mins postinjection; format: ADME, organism-based, Macaca fascicularis; settings: in vivo, 0.025 h
[54] = Drug uptake in awake rhesus monkey brain pons after 75 mins postinjection; format: ADME, organism-based, Macaca mulatta; settings: in vivo, 1.25 h

## O=C(OCC[18F])C1C2CCC(CC1c1cccc(/C=C\I)c1)N2 (centres undefined)
Caudate [1]
  Drug uptake: 3.17
Caudate [2]
  Drug uptake: 2.75
Medulla [3]
  Drug uptake: 3.97
Pons [4]
  Drug uptake: 2.25
Medulla [5]
  Drug uptake: 3.27
Caudate [6]
  Drug uptake: 2.26
Medulla [7]
  Drug uptake: 3.78
Caudate [8]
  Drug uptake: 3.53
[9]
  Drug uptake: 0.11
[10]
  Drug uptake: 0
[11]
  Ratio: 1.8
Thalamus [12]
  Drug uptake: 2.43
Midbrain [13]
  Drug uptake: 1.19
Putamen [14]
  Drug uptake: 3.44
Thalamus [15]
  Drug uptake: 0.09
[16]
  Drug uptake: 1.49
Putamen [17]
  Drug uptake: 3.33
Thalamus [18]
  Drug uptake: 3.41
Caudate [19]
  Drug uptake: 2.24
Caudate [20]
  Drug uptake: 3.54
[21]
  Ratio: 1.5
[22]
  Drug uptake: 0.17
Pons [23]
  Drug uptake: 2.5
Caudate [24]
  Drug uptake: 2.28
[25]
  Drug uptake: 0.11
[26]
  Drug uptake: 0.15
Putamen [27]
  Drug uptake: 4.37
[28]
  Drug uptake: 0.08
[29]
  Ratio: 1.2
Thalamus [30]
  Drug uptake: 2.38
[31]
  Ratio: 0.9
Putamen [32]
  Drug uptake: 0
Pons [33]
  Drug uptake: 2.25
Thalamus [34]
  Drug uptake: 2.74
Putamen [35]
  Drug uptake: 2.35
Midbrain [36]
  Drug uptake: 3.53
Thalamus [37]
  Drug uptake: 2.2
[38]
  Ratio: 2.1
[39]
  Drug uptake: 0.12
[40]
  Drug uptake: 1.39
[41]
  Drug uptake: 1.41
Pons [42]
  Drug uptake: 0.77
Pons [43]
  Drug uptake: 2.17
Thalamus [44]
  Drug uptake: 3.91
Thalamus [45]
  Drug uptake: 2.76
[46]
  Ratio: 0.9
Medulla [47]
  Drug uptake: 3.15
[48]
  Drug uptake: 0.11
[49]
  Drug uptake: 3.15
Caudate [50]
  Drug uptake: 2.09
Midbrain [51]
  Drug uptake: 3.66
Medulla [52]
  Drug uptake: 2.68
Medulla [53]
  Drug uptake: 0.13
[54]
  Drug uptake: 0.14
